Reference: ChEMBL document CHEMBL1156444, “Structure-based design, synthesis, evaluation, and crystal structures of transition state analogue inhibitors of inosine monophosphate cyclohydrolase” (J Biol Chem, 2007)

What was measured:
[1] = Inhibition of Escherichia coli GAR transformylase
[2] = target: T1, Trifunctional purine biosynthetic protein adenosine-3 (Homo sapiens, UniProt P22102); assay: Inhibition of human recombinant GAR transformylase
T1 sequence (P22102 whole entry): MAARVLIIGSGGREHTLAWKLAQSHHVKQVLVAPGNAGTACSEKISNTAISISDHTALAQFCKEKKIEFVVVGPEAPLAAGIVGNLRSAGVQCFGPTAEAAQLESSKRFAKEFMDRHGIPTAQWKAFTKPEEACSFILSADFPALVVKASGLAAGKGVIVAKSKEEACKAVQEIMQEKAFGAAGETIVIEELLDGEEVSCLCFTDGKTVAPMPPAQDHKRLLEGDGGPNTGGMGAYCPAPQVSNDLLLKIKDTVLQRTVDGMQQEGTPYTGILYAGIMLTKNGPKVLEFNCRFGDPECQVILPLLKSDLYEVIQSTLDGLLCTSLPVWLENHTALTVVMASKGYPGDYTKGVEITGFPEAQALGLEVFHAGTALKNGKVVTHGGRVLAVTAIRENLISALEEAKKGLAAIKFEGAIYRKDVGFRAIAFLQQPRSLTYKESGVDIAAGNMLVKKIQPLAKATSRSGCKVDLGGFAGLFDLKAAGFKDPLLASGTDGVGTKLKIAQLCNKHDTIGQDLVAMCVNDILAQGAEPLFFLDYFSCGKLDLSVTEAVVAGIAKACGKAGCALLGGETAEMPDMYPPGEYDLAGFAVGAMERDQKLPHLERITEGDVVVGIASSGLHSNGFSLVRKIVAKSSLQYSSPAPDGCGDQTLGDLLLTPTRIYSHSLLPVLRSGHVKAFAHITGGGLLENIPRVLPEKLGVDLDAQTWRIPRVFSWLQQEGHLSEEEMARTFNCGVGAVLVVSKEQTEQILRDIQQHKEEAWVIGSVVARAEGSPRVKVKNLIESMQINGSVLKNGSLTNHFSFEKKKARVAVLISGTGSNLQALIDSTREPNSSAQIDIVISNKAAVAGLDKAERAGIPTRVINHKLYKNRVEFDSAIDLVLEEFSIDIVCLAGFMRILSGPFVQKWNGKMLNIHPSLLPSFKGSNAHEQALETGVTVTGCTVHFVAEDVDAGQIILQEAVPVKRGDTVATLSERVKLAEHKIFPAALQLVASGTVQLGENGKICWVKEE

[3] = target: Bifunctional purine biosynthesis protein ATIC (Homo sapiens, UniProt P31939); assay: Inhibition of IMPCH activity of human wild-type ATIC
Chain of Bifunctional purine biosynthesis protein ATIC (P31939 whole entry): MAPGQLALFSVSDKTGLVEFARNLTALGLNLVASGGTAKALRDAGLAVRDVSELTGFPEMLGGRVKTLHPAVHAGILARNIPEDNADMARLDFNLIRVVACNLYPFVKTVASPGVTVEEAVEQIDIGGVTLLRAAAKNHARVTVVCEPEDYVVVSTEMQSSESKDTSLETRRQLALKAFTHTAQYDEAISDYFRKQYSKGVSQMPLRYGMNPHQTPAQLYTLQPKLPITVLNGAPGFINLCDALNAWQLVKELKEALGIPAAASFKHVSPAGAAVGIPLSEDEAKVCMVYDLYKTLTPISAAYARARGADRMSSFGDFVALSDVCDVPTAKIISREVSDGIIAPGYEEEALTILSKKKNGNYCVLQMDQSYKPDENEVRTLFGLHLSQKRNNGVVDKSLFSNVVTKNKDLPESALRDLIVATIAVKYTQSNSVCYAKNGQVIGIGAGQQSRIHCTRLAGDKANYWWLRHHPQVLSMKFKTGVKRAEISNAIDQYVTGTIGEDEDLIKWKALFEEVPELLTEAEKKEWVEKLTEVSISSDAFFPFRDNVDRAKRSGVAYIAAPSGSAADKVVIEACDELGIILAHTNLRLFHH

Compound	Ki [1] [µM]	Ki [2] [µM]	Ki [3] [µM]
Nc1nc2c(c(=O)[nH]1)C[C@@H](CCc1ccc(C(=O)N[C@@H](CCC(=O)O)C(=O)O)cc1)CN2 [LOMETREXOL]	0.1		
O=C1NS(=O)(=O)Nc2c1ncn2[C@@H]1O[C@H](CO)[C@@H](O)[C@H]1O	> 100	> 100	
O=C1NS(=O)(=O)Nc2c1ncn2[C@@H]1O[C@H](COP(=O)(O)O)[C@@H](O)[C@H]1O	> 100	4.8	
NC(=O)c1ncn([C@@H]2O[C@H](COP(=O)(O)O)[C@@H](O)[C@H]2O)c1NC=O [FAICAR]			0.4
O=C1NS(=O)(=O)Nc2nc[nH]c21	> 100	> 100	
